Reference: ChEMBL document CHEMBL1909294, “Translating clinical findings into knowledge in drug safety evaluation--drug induced liver injury prediction system (DILIps)” (PLoS Comput Biol, 2011)

How the values were obtained:
Hepatotoxicity [1] = test system: Hepatotoxicity;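 as to HepSE Combined Scores: combined hepatic side effect score as listed in the training data of the Drug Induced Liver Injury Prediction System (DILIps)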;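 as to HepSE cholecystitis: Cholecystitis-related hepatic side effect score drawn from the DILIps (drug-induced liver injury prediction) training data set; call rule not given here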;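 as to HepSE elevated liver function tests: hepatic side effect score for raised liver function tests, as recorded in the DILIps training set used for predicting drug-induced liver injury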; as to HepSE hepatic failure: call rule not given here; as to HepSE liver disease: call rule not given here;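 as to HepSE liver fatty: hepatic side effect score for fatty liver, taken from the DILIps training set for predicting drug-induced liver injury; call rule not given here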;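 as to HepSE liver function tests abnormal: hepatic side effect score taken from the DILIps (drug-induced liver injury prediction system) training data, here covering abnormal liver function test findings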
Hepatotoxicity [2] = test system: Hepatotoxicity; remark: listed apart in the source;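 as to HepSE Combined Scores: combined hepatic side effect score as listed in the training data of the Drug Induced Liver Injury Prediction System (DILIps)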;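 as to HepSE cholecystitis: Cholecystitis-related hepatic side effect score drawn from the DILIps (drug-induced liver injury prediction) training data set; call rule not given here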;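 as to HepSE elevated liver function tests: hepatic side effect score for raised liver function tests, as recorded in the DILIps training set used for predicting drug-induced liver injury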; as to HepSE hepatic failure: call rule not given here; as to HepSE liver disease: call rule not given here;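 as to HepSE liver fatty: hepatic side effect score for fatty liver, taken from the DILIps training set for predicting drug-induced liver injury; call rule not given here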;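 as to HepSE liver function tests abnormal: hepatic side effect score taken from the DILIps (drug-induced liver injury prediction system) training data, here covering abnormal liver function test findings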
Hepatotoxicity [3] = test system: Hepatotoxicity; remark: listed apart in the source;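 as to HepSE Combined Scores: combined hepatic side effect score as listed in the training data of the Drug Induced Liver Injury Prediction System (DILIps)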;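 as to HepSE cholecystitis: Cholecystitis-related hepatic side effect score drawn from the DILIps (drug-induced liver injury prediction) training data set; call rule not given here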;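 as to HepSE elevated liver function tests: hepatic side effect score for raised liver function tests, as recorded in the DILIps training set used for predicting drug-induced liver injury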; as to HepSE hepatic failure: call rule not given here; as to HepSE liver disease: call rule not given here;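 as to HepSE liver fatty: hepatic side effect score for fatty liver, taken from the DILIps training set for predicting drug-induced liver injury; call rule not given here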;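 as to HepSE liver function tests abnormal: hepatic side effect score taken from the DILIps (drug-induced liver injury prediction system) training data, here covering abnormal liver function test findings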
Hepatotoxicity [4] = test system: Hepatotoxicity; remark: listed apart in the source;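 as to HepSE Combined Scores: combined hepatic side effect score as listed in the training data of the Drug Induced Liver Injury Prediction System (DILIps)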;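 as to HepSE cholecystitis: Cholecystitis-related hepatic side effect score drawn from the DILIps (drug-induced liver injury prediction) training data set; call rule not given here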;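 as to HepSE elevated liver function tests: hepatic side effect score for raised liver function tests, as recorded in the DILIps training set used for predicting drug-induced liver injury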; as to HepSE hepatic failure: call rule not given here; as to HepSE liver disease: call rule not given here;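 as to HepSE liver fatty: hepatic side effect score for fatty liver, taken from the DILIps training set for predicting drug-induced liver injury; call rule not given here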
Hepatotoxicity [5] = test system: Hepatotoxicity; remark: listed apart in the source; as to HepSE hepatic failure: call rule not given here; as to HepSE liver disease: call rule not given here
Hepatotoxicity [6] = test system: Hepatotoxicity; remark: listed apart in the source; as to HepSE hepatic failure: call rule not given here; as to HepSE liver disease: call rule not given here
Hepatotoxicity [7] = test system: Hepatotoxicity; remark: listed apart in the source
Hepatotoxicity [8] = test system: Hepatotoxicity; remark: listed apart in the source
Hepatotoxicity [9] = test system: Hepatotoxicity; remark: listed apart in the source
Hepatotoxicity [10] = test system: Hepatotoxicity; remark: listed apart in the source
Hepatotoxicity [11] = test system: Hepatotoxicity; remark: listed apart in the source
Hepatotoxicity [12] = test system: Hepatotoxicity; remark: listed apart in the source
Hepatotoxicity [13] = test system: Hepatotoxicity; remark: listed apart in the source
Hepatotoxicity [14] = test system: Hepatotoxicity; remark: listed apart in the source

Structure (SMILES) | HepSE_liver disease (Hepatotoxicity [1]) | HepSE_Combined Scores (Hepatotoxicity [2]) | HepSE_hepatic failure (Hepatotoxicity [3]) | HepSE_elevated liver function tests (Hepatotoxicity [4]) | HepSE_cholecystitis (Hepatotoxicity [5]) | HepSE_liver fatty (Hepatotoxicity [6]) | HepSE_liver function tests abnormal (Hepatotoxicity [7]) | HepSE_hepatomegaly (Hepatotoxicity [8]) | HepSE_bilirubinemia (Hepatotoxicity [9]) | HepSE_hepatitis (Hepatotoxicity [10]) | HepSE_cholelithiasis (Hepatotoxicity [11]) | HepSE_jaundice (Hepatotoxicity [12]) | HepSE_hepatic necrosis (Hepatotoxicity [13]) | HepSE_cirrhosis (Hepatotoxicity [14])
CCCCN1C[C@H](O)[C@@H](O)[C@H](O)[C@H]1CO | 0 | 0 | 0 | 0 | 0 | 0 | 0 | 0 | 0 | 0 | 0 | 0 | 0 | 0
CC(C)CN(C[C@@H](O)[C@H](Cc1ccccc1)NC(=O)O[C@H]1CCOC1)S(=O)(=O)c1ccc(N)cc1 | 0 | 0 | 0 | 0 | 0 | 0 | 0 | 0 | 0 | 0 | 0 | 0 | 0 | 0
COc1cc2c(cc1OC)[C@@H](Cc1cc(OC)c(OC)c(OC)c1)[N+](C)(CCCOC(=O)CC/C=C/CCC(=O)OCCC[N+]1(C)CCc3cc(OC)c(OC)cc3[C@H]1Cc1cc(OC)c(OC)c(OC)c1)CC2 (some centres undefined) | 0 | 0 | 0 | 0 | 0 | 0 | 0 | 0 | 0 | 0 | 0 | 0 | 0 | 0
[Mg] | 0 | 0 | 0 | 0 | 0 | 0 | 0 | 0 | 0 | 0 | 0 | 0 | 0 | 0
C[C@@H](NCCCc1cccc(C(F)(F)F)c1)c1cccc2ccccc12 | 0 | 0 | 0 | 0 | 0 | 0 | 0 | 0 | 0 | 0 | 0 | 0 | 0 | 0
Nc1ncnc2c1ncn2[C@@H]1O[C@H](COP(=O)(S)S)[C@@H](O)[C@H]1O | 0 | 6 | 1 | 1 | 0 | 0 | 0 | 0 | 0 | 1 | 0 | 1 | 1 | 1
O=C(CO)[C@@H](O)[C@@H](O)COP(=O)(O)O | 0 | 0 | 0 | 0 | 0 | 0 | 0 | 0 | 0 | 0 | 0 | 0 | 0 | 0
OC[C@H]1O[C@@H](O)[C@@H](F)[C@@H](O)[C@@H]1O | 0 | 0 | 0 | 0 | 0 | 0 | 0 | 0 | 0 | 0 | 0 | 0 | 0 | 0
CC(C)CN(C[C@@H](O)[C@H](Cc1ccccc1)NC(=O)O[C@H]1CO[C@H]2OCC[C@H]21)S(=O)(=O)c1ccc(N)cc1 | 0 | 5 | 1 | 0 | 0 | 0 | 0 | 0 | 1 | 1 | 0 | 1 | 0 | 1
CN1CCC[C@@H]1Cc1c[nH]c2ccc(CCS(=O)(=O)c3ccccc3)cc12 | 0 | 2 | 0 | 0 | 0 | 0 | 1 | 0 | 1 | 0 | 0 | 0 | 0 | 0
COCCCOc1cc(C[C@@H](C[C@H](N)[C@@H](O)C[C@H](C(=O)NCC(C)(C)C(N)=O)C(C)C)C(C)C)ccc1OC | 0 | 0 | 0 | 0 | 0 | 0 | 0 | 0 | 0 | 0 | 0 | 0 | 0 | 0
CO/N=C(\C(=O)N[C@@H]1C(=O)N2C(C(=O)[O-])=C(C[N+]3(C)CCCC3)CS[C@H]12)c1csc(N)n1 | 0 | 1 | 1 | 0 | 0 | 0 | 0 | 0 | 0 | 0 | 0 | 0 | 0 | 0
O=S(=O)(OC[C@H]1O[C@@H](O[C@]2(COS(=O)(=O)[O][Al]([OH])[OH])O[C@H](OS(=O)(=O)[O][Al]([OH])[OH])[C@@H](OS(=O)(=O)[O][Al]([OH])[OH])[C@@H]2OS(=O)(=O)[O][Al]([OH])[OH])[C@H](OS(=O)(=O)[O][Al]([OH])[OH])[C@@H](OS(=O)(=O)[O][Al]([OH])[OH])[C@@H]1OS(=O)(=O)[O][Al]([OH])[OH])[O][Al]([OH])[OH].[OH][Al]([OH])[OH].[OH][Al]([OH])[OH].[OH][Al]([OH])[OH].[OH][Al]([OH])[OH].[OH][Al]([OH])[OH].[OH][Al]([OH])[OH].[OH][Al]([OH])[OH].[OH][Al]([OH])[OH] | 0 | 0 | 0 | 0 | 0 | 0 | 0 | 0 | 0 | 0 | 0 | 0 | 0 | 0
CC(C)(C)NC(=O)[C@@H]1CN(Cc2cccnc2)CCN1C[C@@H](O)C[C@@H](Cc1ccccc1)C(=O)N[C@H]1c2ccccc2C[C@H]1O.O | 0 | 4 | 1 | 0 | 0 | 0 | 0 | 0 | 1 | 1 | 0 | 1 | 0 | 0
CN1CC(=O)N2[C@H](c3ccc4c(c3)OCO4)c3[nH]c4ccccc4c3C[C@@H]2C1=O | 0 | 1 | 0 | 0 | 0 | 0 | 1 | 0 | 0 | 0 | 0 | 0 | 0 | 0
N[C@@H](Cc1ccc(N(CCCl)CCCl)cc1)C(=O)O | 0 | 3 | 0 | 0 | 0 | 0 | 1 | 0 | 0 | 1 | 0 | 1 | 0 | 0
